This note sets out measurements from ChEMBL document CHEMBL1201862, “PubChem BioAssay data set” (2004).

Active and inactive are the calls of the source. Cut-off read from the data, not from the text of the source, for most assays here: actives have a measured IC50 and inactives only a lower limit.

Assay [1] concerns the target Voltage-dependent T-type calcium channel subunit alpha-1H (Homo sapiens, UniProt O95180). As to the kind of experiment: Cav3.2 T-type channel inhibitors, synthesized analogs, SAR follow-up, cell-based, synthetic library set 2, HEK293 HH8, Fluo-4 (AID 493023). It counts as functional.
The target in assay [2] is Tyrosine-protein phosphatase non-receptor type 7 (Homo sapiens, UniProt P35236). It counts as functional.
The target in assay [3] is T1, Tyrosine-protein phosphatase non-receptor type 22 (Homo sapiens, UniProt Q9Y2R2).
T1 sequence (Q9Y2R2 whole entry): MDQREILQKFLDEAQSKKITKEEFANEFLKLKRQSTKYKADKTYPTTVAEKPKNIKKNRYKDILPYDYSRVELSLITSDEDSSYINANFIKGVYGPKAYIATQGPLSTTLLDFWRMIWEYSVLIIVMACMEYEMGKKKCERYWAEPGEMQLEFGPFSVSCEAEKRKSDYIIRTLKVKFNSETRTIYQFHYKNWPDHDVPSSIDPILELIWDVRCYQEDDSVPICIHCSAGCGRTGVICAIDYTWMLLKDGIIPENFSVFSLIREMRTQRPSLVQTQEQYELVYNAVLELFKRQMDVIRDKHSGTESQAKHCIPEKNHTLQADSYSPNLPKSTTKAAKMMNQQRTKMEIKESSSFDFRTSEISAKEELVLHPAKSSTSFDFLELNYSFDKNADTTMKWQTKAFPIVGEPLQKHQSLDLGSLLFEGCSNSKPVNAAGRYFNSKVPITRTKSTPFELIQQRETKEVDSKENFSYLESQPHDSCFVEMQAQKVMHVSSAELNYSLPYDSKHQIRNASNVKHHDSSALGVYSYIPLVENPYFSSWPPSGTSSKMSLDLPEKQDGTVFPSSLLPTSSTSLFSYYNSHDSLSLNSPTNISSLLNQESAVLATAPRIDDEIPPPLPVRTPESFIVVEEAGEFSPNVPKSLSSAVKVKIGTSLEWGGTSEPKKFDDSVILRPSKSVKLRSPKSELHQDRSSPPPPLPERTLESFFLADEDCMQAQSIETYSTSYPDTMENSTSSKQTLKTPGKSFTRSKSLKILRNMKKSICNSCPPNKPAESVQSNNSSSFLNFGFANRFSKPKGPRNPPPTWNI
It counts as functional.

For assay [4], the target named is T1, Tyrosine-protein phosphatase non-receptor type 22. Type of assay: functional. This is another data set of the same source.
The target in assay [5] is T2, SUMO-activating enzyme (Homo sapiens, UniProt Q9UBT2). As to the kind of experiment: SUMOylation inhibitor hit validation, confirmation, SUMOylation inhibitor project, biochemical, AlphaScreen (AID 2018). Type of assay: functional. (In general: In Alpha technology, singlet oxygen from a donor bead excites a nearby acceptor bead.)
Assay [6] has as its target T2, SUMO-activating enzyme. As to the kind of experiment: inhibitors of in vitro SUMOylation cascade, primary screen, biochemical, HTRF, uHTS (AID 2006). Type of assay: protein-complex assay.
The nature of assay [7]: inhibitors of intracellular T. cruzi replication, confirmation, NIH3T3 host cells, beta-gal luminescence (AID 2044).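 Note: intracellular parasites grown in NIH/3T3 mouse fibroblasts as host cells; luminescent beta-galactosidase reporter signal from transgenic T. cruzi replicating inside host cells; inhibitors lower the luminescence signal.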 Type of assay: functional, cell-based.
Assay [8] in a line: cytotoxicity toward NIH3T3 fibroblasts, dose response, counter-screen, cell-based, ATP luminescence, mouse fibroblasts (AID 2010).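 Note: cells exposed to compound for about 90 hours before reading.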 It counts as functional. (In general: Counterscreens check selectivity or assay interference.)
The target of assay [9] is T3, Replicative DNA helicase DnaB (Mycobacterium tuberculosis, UniProt P9WMR3).
T3 sequence (P9WMR3 whole entry): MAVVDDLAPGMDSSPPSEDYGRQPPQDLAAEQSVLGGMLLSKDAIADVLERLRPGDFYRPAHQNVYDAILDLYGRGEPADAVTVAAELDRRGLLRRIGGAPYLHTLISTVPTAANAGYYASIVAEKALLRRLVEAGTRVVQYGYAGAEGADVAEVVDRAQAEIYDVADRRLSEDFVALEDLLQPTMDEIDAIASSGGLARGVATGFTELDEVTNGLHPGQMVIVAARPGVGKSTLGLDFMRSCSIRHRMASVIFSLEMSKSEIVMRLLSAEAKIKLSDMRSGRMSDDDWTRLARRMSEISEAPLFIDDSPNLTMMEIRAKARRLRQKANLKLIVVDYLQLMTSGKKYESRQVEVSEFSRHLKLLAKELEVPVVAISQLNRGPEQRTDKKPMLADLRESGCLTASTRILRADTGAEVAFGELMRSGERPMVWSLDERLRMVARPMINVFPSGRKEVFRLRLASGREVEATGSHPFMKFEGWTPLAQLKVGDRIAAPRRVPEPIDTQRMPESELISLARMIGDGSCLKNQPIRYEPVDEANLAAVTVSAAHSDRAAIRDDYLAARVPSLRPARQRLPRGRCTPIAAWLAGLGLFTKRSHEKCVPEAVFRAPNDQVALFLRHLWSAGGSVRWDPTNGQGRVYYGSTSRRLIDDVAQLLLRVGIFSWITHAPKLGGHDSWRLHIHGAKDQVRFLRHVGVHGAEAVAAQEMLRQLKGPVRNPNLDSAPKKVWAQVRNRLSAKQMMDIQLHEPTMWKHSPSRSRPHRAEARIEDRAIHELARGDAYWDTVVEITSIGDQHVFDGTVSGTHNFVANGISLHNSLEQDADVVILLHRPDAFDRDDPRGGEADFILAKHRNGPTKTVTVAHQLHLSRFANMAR
Nature of the assay: DnaB intein splicing inhibitors, dose response, biochemical, cell-free fluorescence (AID 449749). It counts as functional.

A further assay concerns Vero. As to the kind of experiment: Vero cell cytotoxicity, cytotoxicity control for flavivirus capping enzyme inhibitors (AID 588742). Type of assay: functional. Particulars: Chlorocebus sabaeus.
In the next assay the target is T4, Protein RecA (Mycobacterium tuberculosis, UniProt P9WHJ3).
T4 sequence (P9WHJ3 whole entry): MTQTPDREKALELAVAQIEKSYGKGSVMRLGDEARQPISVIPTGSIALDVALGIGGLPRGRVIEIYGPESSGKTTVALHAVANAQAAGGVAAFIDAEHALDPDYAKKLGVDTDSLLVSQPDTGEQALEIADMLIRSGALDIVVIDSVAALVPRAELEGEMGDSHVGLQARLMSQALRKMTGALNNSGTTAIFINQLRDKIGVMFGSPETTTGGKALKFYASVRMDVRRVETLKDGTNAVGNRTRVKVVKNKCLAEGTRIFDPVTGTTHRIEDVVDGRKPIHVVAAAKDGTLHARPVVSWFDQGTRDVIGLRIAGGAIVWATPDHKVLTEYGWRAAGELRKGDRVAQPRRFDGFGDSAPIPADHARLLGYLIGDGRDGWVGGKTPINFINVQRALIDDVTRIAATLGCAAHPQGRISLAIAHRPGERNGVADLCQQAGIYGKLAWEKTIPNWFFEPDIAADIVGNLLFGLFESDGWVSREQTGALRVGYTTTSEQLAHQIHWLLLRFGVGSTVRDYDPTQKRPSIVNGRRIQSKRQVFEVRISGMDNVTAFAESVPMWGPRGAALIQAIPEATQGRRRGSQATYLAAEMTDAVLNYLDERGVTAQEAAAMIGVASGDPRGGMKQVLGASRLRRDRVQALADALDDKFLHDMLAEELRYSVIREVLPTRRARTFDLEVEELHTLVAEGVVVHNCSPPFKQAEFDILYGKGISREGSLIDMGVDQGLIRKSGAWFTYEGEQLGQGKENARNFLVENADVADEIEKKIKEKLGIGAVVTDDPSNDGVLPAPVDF
Nature of the assay: Fluorescence Cell-Free Homogeneous Dose Retest to Identify Inhibitors of RecA-Intein Splicing Activity. [Related pubchem assays (depositor defined):AID2097, AID2223, AID489010, AID492950]. It counts as functional.

The next assay addresses SUMO E1/E2 (Homo sapiens, UniProt P63279+Q9UBE0+Q9UBT2). Nature of the assay: SAR analysis of SUMOylation using HTRF in an in-Vitro dose response assay. [Related pubchem assays (depositor defined):AID2006, AID2011, AID2018, AID2069, AID2658]. It counts as functional. (In TR-FRET formats the signal depends on donor and acceptor labels being close together.)
The target in assay [10] is T5, Voltage-gated N-type calcium channel alpha-1B subunit/Amyloid beta A4 precursor protein-binding family A member 1 (Homo sapiens, UniProt Q00975+Q02410). As to the kind of experiment: disruptors of Mint-PDZ/N-type channel peptide interaction – biochemical, HTRF, set 2, SAR follow-up (AID 434980). Type of assay: functional.
Assay [11] deals with T5, Voltage-gated N-type calcium channel alpha-1B subunit/Amyloid beta A4 precursor protein-binding family A member 1. As to the kind of experiment: disruptors of Mint-PDZ/N-type channel peptide interaction – biochemical, HTRF, SAR follow-up (AID 2489). It counts as functional.

T5 sequence (Q00975 whole entry): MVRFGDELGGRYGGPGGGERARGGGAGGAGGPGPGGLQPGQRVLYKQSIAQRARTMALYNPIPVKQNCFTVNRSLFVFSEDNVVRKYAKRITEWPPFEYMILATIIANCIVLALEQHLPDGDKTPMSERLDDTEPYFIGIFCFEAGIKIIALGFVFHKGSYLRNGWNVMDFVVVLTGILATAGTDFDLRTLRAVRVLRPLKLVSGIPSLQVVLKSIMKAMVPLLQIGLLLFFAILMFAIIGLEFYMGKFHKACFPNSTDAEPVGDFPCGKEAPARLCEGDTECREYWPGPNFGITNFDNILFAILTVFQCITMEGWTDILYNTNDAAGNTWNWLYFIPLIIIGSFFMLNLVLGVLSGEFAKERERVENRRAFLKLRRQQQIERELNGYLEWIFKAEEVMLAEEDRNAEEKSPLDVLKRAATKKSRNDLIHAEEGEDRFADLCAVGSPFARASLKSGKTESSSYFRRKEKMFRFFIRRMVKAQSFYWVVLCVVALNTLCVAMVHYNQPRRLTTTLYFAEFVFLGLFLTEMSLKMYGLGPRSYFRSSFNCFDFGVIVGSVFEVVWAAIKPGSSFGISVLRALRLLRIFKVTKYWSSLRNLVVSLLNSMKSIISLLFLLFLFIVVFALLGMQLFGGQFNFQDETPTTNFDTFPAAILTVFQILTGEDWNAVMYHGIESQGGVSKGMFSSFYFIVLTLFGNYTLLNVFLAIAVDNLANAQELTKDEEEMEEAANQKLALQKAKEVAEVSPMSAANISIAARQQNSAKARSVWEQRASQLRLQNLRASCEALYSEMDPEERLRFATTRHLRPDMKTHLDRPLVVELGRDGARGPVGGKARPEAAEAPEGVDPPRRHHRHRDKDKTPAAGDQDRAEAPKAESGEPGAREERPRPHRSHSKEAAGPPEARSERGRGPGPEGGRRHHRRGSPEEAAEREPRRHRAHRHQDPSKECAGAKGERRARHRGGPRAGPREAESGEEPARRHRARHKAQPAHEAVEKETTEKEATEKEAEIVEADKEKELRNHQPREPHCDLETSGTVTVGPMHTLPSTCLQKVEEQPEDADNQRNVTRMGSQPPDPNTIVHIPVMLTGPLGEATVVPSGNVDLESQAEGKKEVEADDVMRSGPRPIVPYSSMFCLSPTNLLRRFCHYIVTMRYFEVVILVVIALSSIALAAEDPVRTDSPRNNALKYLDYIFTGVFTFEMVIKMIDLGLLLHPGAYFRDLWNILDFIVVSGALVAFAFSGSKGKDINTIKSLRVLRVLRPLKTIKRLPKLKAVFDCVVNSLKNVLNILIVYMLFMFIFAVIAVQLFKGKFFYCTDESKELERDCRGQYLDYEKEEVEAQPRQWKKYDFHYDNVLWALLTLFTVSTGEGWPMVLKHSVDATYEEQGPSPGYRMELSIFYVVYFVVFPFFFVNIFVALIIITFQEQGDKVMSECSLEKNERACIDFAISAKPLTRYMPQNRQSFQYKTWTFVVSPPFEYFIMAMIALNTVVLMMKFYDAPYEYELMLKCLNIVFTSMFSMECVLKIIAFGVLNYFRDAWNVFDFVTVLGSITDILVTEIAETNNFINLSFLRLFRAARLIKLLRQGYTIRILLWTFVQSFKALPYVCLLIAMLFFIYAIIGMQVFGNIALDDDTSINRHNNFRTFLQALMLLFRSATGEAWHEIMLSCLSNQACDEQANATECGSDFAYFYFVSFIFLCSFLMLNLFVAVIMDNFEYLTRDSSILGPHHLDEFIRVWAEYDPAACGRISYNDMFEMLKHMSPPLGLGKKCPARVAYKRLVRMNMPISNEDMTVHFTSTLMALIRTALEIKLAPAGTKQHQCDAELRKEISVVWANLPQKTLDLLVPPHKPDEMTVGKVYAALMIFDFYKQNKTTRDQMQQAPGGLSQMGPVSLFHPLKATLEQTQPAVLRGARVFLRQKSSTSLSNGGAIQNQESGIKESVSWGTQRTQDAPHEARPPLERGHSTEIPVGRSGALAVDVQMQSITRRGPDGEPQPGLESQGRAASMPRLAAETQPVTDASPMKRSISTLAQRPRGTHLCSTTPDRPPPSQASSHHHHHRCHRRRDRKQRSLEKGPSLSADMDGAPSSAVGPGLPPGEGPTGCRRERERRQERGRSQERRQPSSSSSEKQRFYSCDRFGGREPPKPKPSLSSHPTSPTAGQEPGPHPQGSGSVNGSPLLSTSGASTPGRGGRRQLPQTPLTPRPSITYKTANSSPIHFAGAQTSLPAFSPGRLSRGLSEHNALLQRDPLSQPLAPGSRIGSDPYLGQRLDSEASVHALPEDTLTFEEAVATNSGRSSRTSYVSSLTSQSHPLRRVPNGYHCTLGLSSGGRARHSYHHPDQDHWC
T5 sequence (Q02410 whole entry): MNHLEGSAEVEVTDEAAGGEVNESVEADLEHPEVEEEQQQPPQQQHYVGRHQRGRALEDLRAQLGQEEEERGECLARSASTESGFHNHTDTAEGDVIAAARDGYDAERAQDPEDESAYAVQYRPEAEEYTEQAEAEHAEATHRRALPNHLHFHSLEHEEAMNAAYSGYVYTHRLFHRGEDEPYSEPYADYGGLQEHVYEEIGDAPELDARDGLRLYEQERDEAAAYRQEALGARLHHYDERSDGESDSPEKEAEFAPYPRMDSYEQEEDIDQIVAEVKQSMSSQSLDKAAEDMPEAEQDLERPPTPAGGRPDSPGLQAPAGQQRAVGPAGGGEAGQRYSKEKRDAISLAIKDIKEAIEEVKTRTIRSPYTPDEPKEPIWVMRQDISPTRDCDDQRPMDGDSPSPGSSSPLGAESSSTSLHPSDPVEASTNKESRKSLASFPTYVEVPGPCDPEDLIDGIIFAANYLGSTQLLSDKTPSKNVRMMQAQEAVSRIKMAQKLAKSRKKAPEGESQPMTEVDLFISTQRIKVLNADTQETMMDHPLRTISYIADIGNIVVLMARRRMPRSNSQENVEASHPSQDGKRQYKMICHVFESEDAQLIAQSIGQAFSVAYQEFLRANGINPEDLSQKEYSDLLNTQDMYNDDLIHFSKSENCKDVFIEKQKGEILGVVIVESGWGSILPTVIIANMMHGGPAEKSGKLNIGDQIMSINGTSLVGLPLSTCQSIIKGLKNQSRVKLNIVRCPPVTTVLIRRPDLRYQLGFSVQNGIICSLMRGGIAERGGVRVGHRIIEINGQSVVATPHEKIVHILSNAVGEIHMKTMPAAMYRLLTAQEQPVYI
T2 sequence (Q9UBE0 whole entry): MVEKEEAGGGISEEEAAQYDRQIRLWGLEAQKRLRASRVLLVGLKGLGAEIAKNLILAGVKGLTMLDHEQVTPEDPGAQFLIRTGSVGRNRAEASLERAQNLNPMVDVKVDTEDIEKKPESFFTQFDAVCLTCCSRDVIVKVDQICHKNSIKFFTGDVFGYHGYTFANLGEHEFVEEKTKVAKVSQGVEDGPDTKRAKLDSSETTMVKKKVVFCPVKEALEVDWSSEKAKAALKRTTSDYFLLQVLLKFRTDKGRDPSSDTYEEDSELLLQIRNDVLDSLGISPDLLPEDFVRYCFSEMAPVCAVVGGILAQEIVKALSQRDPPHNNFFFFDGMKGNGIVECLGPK
T2 sequence (Q9UBT2 whole entry): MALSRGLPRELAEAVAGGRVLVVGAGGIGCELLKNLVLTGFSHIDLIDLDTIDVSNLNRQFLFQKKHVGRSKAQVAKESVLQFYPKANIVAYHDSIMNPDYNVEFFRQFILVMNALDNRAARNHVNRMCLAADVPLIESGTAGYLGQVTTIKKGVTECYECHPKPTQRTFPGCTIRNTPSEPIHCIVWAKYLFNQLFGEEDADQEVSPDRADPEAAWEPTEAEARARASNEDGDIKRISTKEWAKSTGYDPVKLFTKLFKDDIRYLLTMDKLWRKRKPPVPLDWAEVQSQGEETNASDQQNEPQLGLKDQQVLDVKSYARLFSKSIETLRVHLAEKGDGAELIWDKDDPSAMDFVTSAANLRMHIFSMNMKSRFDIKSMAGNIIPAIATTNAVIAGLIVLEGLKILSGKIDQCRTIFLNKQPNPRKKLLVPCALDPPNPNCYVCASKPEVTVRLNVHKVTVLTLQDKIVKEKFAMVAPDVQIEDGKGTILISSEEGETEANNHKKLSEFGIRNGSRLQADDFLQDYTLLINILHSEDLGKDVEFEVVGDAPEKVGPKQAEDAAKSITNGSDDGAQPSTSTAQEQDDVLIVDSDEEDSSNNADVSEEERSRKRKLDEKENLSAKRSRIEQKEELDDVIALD
Sequence of Tyrosine-protein phosphatase non-receptor type 7 (P35236 whole entry): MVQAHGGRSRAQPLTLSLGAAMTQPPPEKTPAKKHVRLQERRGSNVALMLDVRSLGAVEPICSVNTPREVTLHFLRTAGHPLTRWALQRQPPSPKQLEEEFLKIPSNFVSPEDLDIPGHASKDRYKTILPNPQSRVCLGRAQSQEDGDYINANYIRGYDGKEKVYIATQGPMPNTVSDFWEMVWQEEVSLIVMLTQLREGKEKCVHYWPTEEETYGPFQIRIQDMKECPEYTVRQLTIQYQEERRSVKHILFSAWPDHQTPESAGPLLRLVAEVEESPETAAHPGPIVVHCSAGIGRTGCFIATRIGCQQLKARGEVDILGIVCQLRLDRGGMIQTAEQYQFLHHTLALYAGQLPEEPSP
Sequence of SUMO E1/E2 (Q9UBE0 whole entry): as the sequence (Q9UBE0 whole entry) above
Sequence of SUMO E1/E2 (Q9UBT2 whole entry): as the sequence (Q9UBT2 whole entry) above
Sequence of SUMO E1/E2 (P63279 whole entry): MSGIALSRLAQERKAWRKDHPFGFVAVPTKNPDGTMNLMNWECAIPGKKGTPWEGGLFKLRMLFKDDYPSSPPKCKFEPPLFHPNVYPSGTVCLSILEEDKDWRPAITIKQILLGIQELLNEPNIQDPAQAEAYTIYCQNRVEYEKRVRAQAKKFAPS

One may read the EC50 as the midpoint of the concentration-response curve. On to `O=C(COc1ccc(F)c(Cl)c1)N[C@H]1CCCN(Cc2ccccc2)C1`, for which, in [1], the half-maximal effective concentration (EC50) is 10 µM (active).

Broadly, the IC50 is the point on the concentration scale where inhibition reaches its midpoint. Take `O=C1C=C(NCCNc2c(F)c(F)c(CO)c(F)c2F)CCC1`: the IC50 in [2], in assay [3] and in [4] was > 79.4 µM (inactive) in each case.

What is called AC50 is the concentration at which the activity in the assay is half-maximal. The term CC50 denotes the concentration that lowers cell viability or growth by half. With `CCCCCn1c(NC(=O)c2ccco2)c(S(=O)(=O)c2ccc(C)cc2)c2nc3ccccc3nc21`, the figures for the IC50 at SUMO-activating enzyme [5] and at SUMO-activating enzyme [6] were 2.74 µM (active) and 13.1 µM (active), respectively. In addition, the EC50 in [7] is 3.27 µM (active); in [8] it was > 60 µM (not active); on Protein RecA, > 380 µM (inconclusive). The AC50 in assay [9] was > 380 µM (inactive). Besides, the CC50 with Vero was > 40 µM (active).

In the case of `COc1ccccc1CNC(=O)CCOC(=O)c1cc(-c2ccco2)nc2ccccc12`, the figures for the IC50 (at SUMO E1/E2; in assay [10]; in assay [11]) were 38.6 µM (active), 23 µM (active) and > 56.8 µM (inactive), respectively.
